Read-outs that look alike come from different tables or passages of the source.
What was measured:
[1] = system: zidovudine-resistant primary clinical HIV-1 isolates in CD4-expressing HeLa cell line HT4-6C; assay: Syncytial focus (plaque) formation assay in HT4-6C cells; assay type: cell-based; conditions: Human immunodeficiency virus 1, HeLa
Experimental: Plaque formation assays. The syncytial focus (plaque) assay permits quantitation of infectivity of HIV. In brief, a CD4-expressing HeLa cell line (HT4-6C) (AIDS Research and Reference Reagent Program, NIAID) is cultured in 24-well tissue culture plates at 2.5-3.0×10^4 cells/ml in the presence of virus inoculum (100 plaque forming units) and several concentrations of the antiviral agent. The virus was added first for a 2 hr incubation time prior to addition of the antiviral agents. […] Percent inhibition of plaque formation was calculated by comparing the plaque numbers from the test substance-treated infected cells with the plaque numbers from untreated infected cells (i.e., virus controls).

[2] = system: NRTI-resistant recombinant HIV-1 isolates; assay: RT activity assay, multi-NRTI-resistant recombinant HIV-1 clones; assay type: cell-based
[3] = system: Zidovudine-Sensitive Primary Clinical HIV-1 Isolates; assay: p24 drug susceptibility assay, zidovudine-sensitive primary clinical HIV-1 isolates in PBMC; assay type: cell-based; conditions: Human immunodeficiency virus 1, PBMC
Experimental: (§1) Antiviral susceptibility assays. Phenotypic drug susceptibility studies of HIV-1 isolates and strains were performed by measuring the production of the p24 gag protein in peripheral blood mononuclear cells (PBMC) from seronegative healthy volunteers in the presence of increasing concentrations of the anti-HIV agent using the quantitative Coulter HIV-1 p24 antigen ezyme immunoassay (EIA) and HIV-1 p24 Antigen Kinetic Standard (Beckman Coulter), as previously described (Uckun, 1998, Antimicrobial Agents and Chemotherapy 37(4): 835-38). Informed consent was obtained from the blood donors according to DHHS guidelines using consent forms approved by the Institutional Review Board. In brief, PBMC were cultured for 72 h in RPMI 1640 medium (Gibco) supplemented with 20% (vol/vol) heat-inactivated fetal bovine serum, 5% human interleukin-2 (Zeptometrix), 2 mM L-glutamine, 25 mM HEPES, 2 g/L NaHCO3, 100 U/ml penicillin/streptomycin (Gibco), 50 μg/ml gentamicin (Gibco), and 5 μg/ml phytohemagglutinin-P (PHA-P) (Sigma) for 24-72 hours prior to exposure to HIV at a multiplicity of infection of 0.001-0.1 during a 1-h adsorbtion period at 37±1° C. in a humidified 5-7% CO2 atmosphere. Subsequently, cells were cultured in 96-well microtiter plates (100 μl/well; 2×10^6 cells/ml, triplicate wells) in the presence of the anti-HIV agents at 6-7 different concentrations ranging from 0.0001 μM to 100 μM, and 25 μL aliquots of culture supernatants were removed from the wells on day 6 after infection for p24 EIA, as previously described (Uckun, 1998, Antimicrobial Agents and Chemotherapy, 37(4):835-38). Controls included uninfected and untreated cells (background control) and infected but untreated (virus control) cells. The p24 EIA utilizes a murine monoclonal antibody to HIV core protein used to coat microwell strips to which the antigen present in the test culture supernatant samples binds. Percent inhibition of viral replication was calculated by comparing the p24 values from the test substance-treated infected cells with p24 values from untreated infected cells (i.e., virus controls). The IC50 values were determined using the Statview statistics program (SAS Institute, Inc.). In parallel, the effects of various treatments on cell viability were also examined as previously described (Uckun, 1998, Antimicrobial Agents and Chemotherapy, 42:383-388). In brief, noninfected PBMC were treated with each compound for 5 days under identical experimental conditions. A microculture tetrazolium assay (MTA) was performed to quantitate cellular proliferation (Uckun, 1998, Antimicrobial Agents and Chemotherapy, 42:383-388).
Phenotypic drug susceptibility studies of HIV-1 isolates and strains were performed by measuring the production of the p24 gag protein in peripheral blood mononuclear cells (PBMC) from seronegative healthy volunteers in the presence of increasing concentrations of the anti-HIV agent using the quantitative Coulter HIV-1 p24 antigen enzyme immunoassay (EIA) and HIV-1 p24 Antigen Kinetic Standard (Beckman Coulter), as previously described. StatView was used in the calculation of the IC50 values from each set of triplicate wells using the linearized form of an exponential equation (lnY=lnb0+b1X; where Y=% inhibition, X=drug concentration). The inhibition constants were log10 transformed to homogenize the variances within each group. […] P-values below 0.05 were deemed significant (JMP Software, SAS).

[4] = system: HIV-1 RT-MDR (NRTI-resistant, NNRTI-resistant); assay: p24 antigen assay, RT-MDR strain; assay type: cell-based
[5] = in vitro; conditions: human
Experimental: (§2) Percent inhibition of viral replication was calculated by comparing the p24 and RT activity values from the test substance-treated infected cells with those from untreated infected cells. In parallel, the cytotoxicity of the compounds was examined using a microculture tetrazolium assay (MTA) of cell proliferation, as described.in the Zarling, Enrice, and Uckun articles Supra).
(§3) Cellular Assays of Anti-HIV Activity and Cytotoxicity. […] Percent viral inhibition was calculated by comparing the RT activity values from the test substance-treated infected cells with RT values from untreated infected cells (i.e., virus controls).
as §1
In parallel, the cytotoxicity of the compounds was examined using a microculture tetrazolium assay (MTA) of cell proliferation, as described (in the Zarling, Enrice, and Uckun articles Supra).

[6] = system: HIV-1 (HTLVIIIB) in TK-deficient CEM T-cells; assay: Inhibition of HIV-1 replication in TK-deficient CEM T-cells (p24 / RT activity); assay type: cell-based
Experimental: as §2, §3

[7] = read-out: IC50, μM (p24), Mean ± SE, mean over 10 zidovudine-sensitive clinical isolates
[8] = read-out: IC50, μM (p24), isolate 92BR025 (C/C, Brazil), PBMC
[9] = read-out: IC50, μM (p24), isolate 92RW008 (—/A, Rawanda), PBMC
[10] = read-out: IC50, μM (p24), isolate 93BR019 (—/BF, Brazil), PBMC
[11] = read-out: IC50, μM (p24), isolate 93BR020 (F/F, Brazil), PBMC
[12] = read-out: IC50, μM (p24), isolate 93BR029 (F/B, Brazil), PBMC
[13] = read-out: IC50, μM (p24), isolate 93IN101 (—/C, India), PBMC
[14] = read-out: IC50, μM (p24), isolate HIV-1G3 (—/G, Nigeria), PBMC
[15] = read-out: IC50 range, range over 10 zidovudine-sensitive clinical isolates
[16] = Human immunodeficiency virus 1, CCRF-CEM, TK-deficient CEM cells, read-out: IC50 value for inhibition of RT activity
[17] = Human immunodeficiency virus 1, T-cell, TK-deficient CEM T-cells, Table 5, read-out: CEM IC50 [RT]

Cc1cn([C@H]2C[C@H](N=[N+]=[N-])[C@@H](CO)O2)c(=O)[nH]c1=O [AZT, 3′-azido-3′-deoxythymidine]
IC50 ([1]; read-out: IC50, μM(Plaque Assay), Mean ± SE, mean over 9 zidovudine-resistant isolates): 3.9 ± 1 µM
IC50 ([1]; read-out: IC50, μM(Plaque Assay), isolate G190-6 (M41L, D67N, K70R, T215Y, K219Q)): 10 µM
IC50 ([1]; read-out: IC50, μM(Plaque Assay), isolate G691-2 (mutations N.D.)): 7.8 µM
IC50 ([1]; read-out: IC50, μM(Plaque Assay), isolate G704-2 (M41L, D67N, K70R, L210W, T215Y)): 5.7 µM
IC50 ([1]; read-out: IC50, μM(Plaque Assay), isolate G780-1 (M41L, D67N, K70R, T215F, K219Q)): 1.8 µM
IC50 ([1]; read-out: IC50, μM(Plaque Assay), isolate G890-1 (K20R, M41L, D67N, T69N, K70R, L210W, T215Y)): 3.6 µM
IC50 ([1]; read-out: IC50, μM(Plaque Assay), isolate H112-2 (no RT mutation, ZDV-sensitive control)): 0.015 µM
IC50 ([1]; read-out: IC50, μM(Plaque Assay), isolate J179-1 (M41L, D67N, L210W, T215Y)): 2.6 µM
IC50 ([1]; read-out: IC50, μM(Plaque Assay), isolate M709-1 (L1210W, T215Y)): 3 µM
IC50 ([1]; read-out: IC50, μM(Plaque Assay), isolate Q252-2 (M41L, L210W, T215Y)): 2.8 µM
IC50 ([1]; read-out: IC50, μM(Plaque Assay), isolate U317-8 (M41L, L210W, T215Y)): 2 µM
IC50 ([2]; Human immunodeficiency virus 1, read-out: IC50 (nM), RT, recombinant clone 1617-1): 174 nM
IC50 ([2]; Human immunodeficiency virus 1, read-out: IC50 (nM), RT, recombinant clone 4755-5): 15.4 nM
IC50 ([2]; Human immunodeficiency virus 1, read-out: IC50 (nM), RT, recombinant clone 7295-1): 0.8 nM
IC50 ([2]; Human immunodeficiency virus 1, read-out: IC50 (nM), RT, recombinant clone 7324-1): 108 nM
IC50 ([2]; Human immunodeficiency virus 1, read-out: IC50 (nM), RT, recombinant clone 52534-2): 54.8 nM
IC50 ([2]; Human immunodeficiency virus 1, read-out: IC50 (nM), RT, recombinant clone 56252-1): 187 nM
IC50 ([2]; Human immunodeficiency virus 1, read-out: mean IC50, RT, mean over 6 multi-NRTI-resistant clones): 90 ± 32.4 nM
IC50 [3, 7]: 0.004 ± 0.001 µM
IC50 [3, 8]: 0.004 µM
IC50 [3, 9]: 0.002 µM
IC50 [3, 10]: 0.002 µM
IC50 [3, 11]: 0.002 µM
IC50 [3, 12]: 0.007 µM
IC50 [3, 13]: 0.001 µM
IC50 [3, 14]: 0.01 µM
IC50 [3, 15]: 0.001 to 0.01 µM
IC90 ([3]; read-out: IC90 mean ±SE): 50 ± 10 nM
IC90 ([3]; read-out: IC90 range): 11 to 90 nM
IC50 ([4]; Human immunodeficiency virus 1, RT-MDR(Con) control strain (M41L, L74V, T215Y, V106N)): > 10000 nM
IC50 ([4]; Human immunodeficiency virus 1, read-out: IC50 RTMDR, p24): 68 nM
CC50 at 5 days ([5]; CC50): 0.0527 µM
CC50 at 5 days ([5]; CC50, μM): 95.6 ± 2.9 µM
IC50 at 5 days ([5]; PBMNC IC50 [MTA]): > 10000 nM
IC50 [6, 16]: 200 nM
IC50 [6, 17]: 200 nM

Cc1cn([C@H]2C=C[C@@H](CO)O2)c(=O)[nH]c1=O [d4T, 2′,3′-didehydro-2′,3′-dideoxythymidine]
IC50 [3, 7]: 0.24 ± 0.07 µM
IC50 ([3]; read-out: IC50, μM (p24), isolate 92BR003 (B/B, Brazil), PBMC): 0.1 µM
IC50 [3, 8]: 0.4 µM
IC50 [3, 9]: 0.2 µM
IC50 ([3]; read-out: IC50, μM (p24), isolate 92RW016 (subtype A/A, Rawanda), PBMC): 0.1 µM
IC50 [3, 10]: 0.2 µM
IC50 [3, 11]: 0.2 µM
IC50 [3, 12]: 0.8 µM
IC50 [3, 13]: 0.1 µM
IC50 [3, 14]: 0.1 µM
IC50 ([3]; read-out: IC50, μM (p24), isolate HIV-1JV1083 (—/G, Nigeria), PBMC): 0.2 µM
IC50 [3, 15]: 0.1 to 0.8 µM
IC90 ([3]; read-out: IC90 mean ±SE): 6380 ± 3890 nM
IC90 ([3]; read-out: IC90 range): 1000 to 40900 nM
CC50 at 5 days ([5]; CC50, μM): 4.5 ± 1.7 µM
IC50 at 5 days ([5]; IC50 [MTA]): > 10000 nM
IC50 [6, 16]: 2360 nM
IC50 ([6]; Human immunodeficiency virus 1, CCRF-CEM, TK-deficient CEM cells, read-out: IC50 value for inhibition of p24 production): 556 nM
IC50 [6, 17]: 2400 nM
IC50 ([6]; Human immunodeficiency virus 1, T-cell, TK-deficient CEM, unit not printed in Table 2 (0.556 = 556 nM), read-out: IC50 [p24]): 556 nM
IC50 ([6]; Human immunodeficiency virus 1, T-cell, TK-deficient CEM, unit not printed in Table 2 (2.355 = 2355 nM), read-out: IC50 [RT]): 2360 nM
IC50 ([6]; Human immunodeficiency virus 1, T-cell, read-out: CEM IC50 [RT], TK-deficient CEM T-cells, Table 4): 2340 nM

Cc1ccnc2c1NC(=O)c1cccnc1N2C1CC1 [nevirapine]
IC50 ([3]; primary isolate RW/92/8 (V179I), Table 14): 0.1 µM
IC50 ([4]; Human immunodeficiency virus 1, MT2, laboratory strain RT-MDR (V106N), MT-2 cells, Table 14): 18000 ± 8000 nM
CC50 at 5 days ([5]; PBMC or MT-2 cells, CC50 values, data not shown): > 100 µM
CC50 at 5 days ([5]; peripheral blood mononuclear cells (PBMC), CC50, μM, viability of PBMC): 5.1 ± 2.3 µM

Reference: patent publication US20070015733A1, “Aryl Phosphate Derivatives of d4T having Activity Against Resistant HIV Strains” (Parker Hughes Institute, priority 1998, published 2007)
